Earlier results on three compounds are cited in patent publication EP2708126A1, “Insecticidal aerosol” (priority 2012, dated 2014).

The conditions of the data set: rats, through ingestion.
Take `CC1(C)C(C=C(Cl)Cl)C1C(=O)OCc1cccc(Oc2ccccc2)c1` (stereo not drawn) [Permethrin, 3-phenoxybenzyl-3-(2,2-dichlorovinyl)-2,2-dimethylcyclopropane-carboxylate]: the median lethal dose (LD50) (as a rule, the dose at which mortality reaches 50%) is given as 383 mg/kg.
For the compound `CC1(C)C(C=C(Cl)Cl)C1C(=O)OC(C#N)c1cccc(Oc2ccccc2)c1` (racemic) [Alpha cypermethrin], the median lethal dose (LD50) is on record as 79 mg/kg.
`CNC(=O)Oc1cccc2c1OC(C)(C)O2` [Bendiocarb, 2,2-dimethyl-1,3-benzodioxol-4-yl-N-methylcarbamate]: the LD50 is 55 mg/kg.
